Measured values taken from US7943628B2, “Pyrimidine derivatives” (Pfizer Limited, priority 2005, dated 2011).

target: T1, histamine H4 receptor (Homo sapiens, UniProt Q9H3N8); test: H4 binding, method 1 ([3H]-histamine filtration binding on CHO cell membranes); conditions: 1.5 h
T1 construct: expressed in transfected cells; host or cells: CHO cells
Procedure: Cell pellets from CHO cells expressing the histamine H4 receptor were homogenised in ice-cold 50 mM Tris-HCl/0.5 mM CaCl2 buffer containing a protease inhibitor cocktail (Roche®, United Kingdom) using a ground glass homogeniser. Homogenates were centrifuged at 48000 g for 30 min at 4° C. The membrane pellet was resuspended in fresh buffer and the centrifugation step was repeated as described above. The membrane pellet was resuspended in 50 mM Tris-HCl in the same volume as the original cell pellet. Aliquots of membrane preparations were stored at −80° C. and were used for [^3H]-Histamine binding experiments.
Cell membranes (20-35 μg/well) were incubated for 90 minutes shaking at room temperature with 3 nM [2,5-^3H]Histamine dihydrochloride (30-60 Ci/mmol) in 50 mM Tris-HCl (pH 7.4), with or without competing H4 ligands. The reaction was terminated by rapid filtration through 0.5% polyethylenimine-soaked Unifilter GF/B plates (Packard) followed by three washes with 1 ml ice-cold 50 mM Tris-HCl. Filters were dried for 45 min at 45° C. and bound radiolabel was determined using scintillation counting techniques. Non-specific binding was defined with 10 μM JNJ7777120.

T1 sequence (Q9H3N8 whole entry): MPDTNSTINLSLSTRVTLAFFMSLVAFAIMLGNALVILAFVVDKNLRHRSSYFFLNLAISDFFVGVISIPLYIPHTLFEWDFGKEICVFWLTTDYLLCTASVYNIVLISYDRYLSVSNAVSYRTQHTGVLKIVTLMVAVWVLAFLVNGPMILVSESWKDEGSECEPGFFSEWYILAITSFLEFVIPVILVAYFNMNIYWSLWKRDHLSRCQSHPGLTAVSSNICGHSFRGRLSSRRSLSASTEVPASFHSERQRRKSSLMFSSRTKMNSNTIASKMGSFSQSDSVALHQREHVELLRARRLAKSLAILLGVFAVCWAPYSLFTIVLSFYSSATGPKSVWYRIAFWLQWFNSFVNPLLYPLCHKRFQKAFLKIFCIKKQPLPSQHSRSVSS

SMILES | inhibition at 10 µM [%]
N[C@@]12C[C@@H]1CN(c1cc(NCC3CC3)ncn1)C2 (relative stereo) [Example 304, (1S*,5R*)-3-{6-[(Cyclopropylmethyl)amino]pyrimidin-4-yl}-3-azabicyclo[3.1.0]hexan-1-amine] | 19

same assay, conditions: H4 binding, method 1; Ki calculated from IC50 (Cheng-Prussoff)

SMILES | Ki [nM]
CC(C)Nc1cc(N2CC[C@@H]3NCC[C@@H]3C2)nc(N)n1 (racemic) [Example 137, N^4-Isopropyl-6-[(3aR*,7aS*)-octahydro-5H-pyrrolo[3,2-c]pyridin-5-yl]pyrimidine-2,4-diamine] | 8.25
CC(C)(C)CNc1cc(N2CC[C@@H]3NCC[C@@H]3C2)nc(N)n1 (racemic) [Example 162, N^4-(2,2-Dimethylpropyl)-6-[(3aR*,7aS*)-octahydro-5H-pyrrolo[3,2-c]pyridin-5-yl]pyrimidine-2,4-diamine] | 2.91
Nc1nc(NCC2CC2)cc(N2CC[C@@H]3NCC[C@@H]3C2)n1 (racemic) [Example 188, N^4-(Cyclopropylmethyl)-6-[(3aR*,7aS*)-octahydro-5H-pyrrolo[3,2-c]pyridin-5-yl]pyrimidine-2,4-diamine] | 25.5
CCNc1cc(N2CC[C@@H]3NCC[C@@H]3C2)nc(N)n1 (racemic) [Example 193, N^4-Ethyl-6-[(3aR*,7aS*)-octahydro-5H-pyrrolo[3,2-c]pyridin-5-yl]pyrimidine-2,4-diamine] | 31
CNc1cc(N2CC[C@@H]3NCC[C@@H]3C2)nc(N)n1 (racemic) [Example 200, N^4Methyl-6-[(3aR*,7aS*)-octahydro-5H-pyrrolo[3,2-c]pyridin-5-yl]pyrimidine-2,4-diamine] | 34
CC(C)(C)Nc1cc(N2C[C@@H]3CCCN[C@@H]3C2)nc(N)n1 (relative stereo) [Example 150, N^4-(tert-Butyl)-6-[(4aS*,7aS*)-octahydro-6H-pyrrolo[3,4-b]pyridin-6-yl]pyrimidine-2,4-diamine] | 11.8
CN(C)[C@H]1CCN(c2cc(NCCC(C)(C)C)ncn2)C1 [Example 2, 6-[(3S)-3-(Dimethylamino)pyrrolidin-1-yl]-N-(3,3-dimethylbutyl)pyrimidin-4-amine] | 485
CN1C[C@@H]2CN(c3cc(NCCC(C)(C)C)ncn3)C[C@@H]2C1 [Example 3, N-(3,3-Dimethylbutyl)-6-[(3aR*,6aS*)-5-methylhexahydropyrrolo[3,4-c]pyrrol-2(1H)-yl]pyrimidin-4-amine] | 220
CN(C)C1CN(c2cc(NCCC(C)(C)C)ncn2)C1 [Example 4, 6-[3-(Dimethylamino)azetidin-1-yl]-N-(3,3-dimethylbutyl)pyrimidin-4-amine] | 374
CN1C[C@@H]2C[C@H]1CN2c1cc(NCCC(C)(C)C)ncn1 [Example 5, N-(3,3-Dimethylbutyl)-6-[(1S,4S)-5-methyl-2,5-diazabicyclo[2.2.1]hept-2-yl]pyrimidin-4-amine] | 263
CC(C)(C)CCNc1cc(N[C@H]2CCNC2)ncn1 [Example 6, N-(3,3-Dimethylbutyl)-N′-[(3S)-pyrrolidin-3-yl]pyrimidine-4,6-diamine] | 502
CC(C)(C)CCNc1cc(N[C@@H]2CCNC2)ncn1 [Example 7, N-(3.3-Dimethylbutyl)-N′-[(3R)-pyrrolidin-3-yl]pyrimidine-4,6-diamine] | 939
CN1CC[C@@H](Nc2cc(NCCC(C)(C)C)ncn2)C1 [Example 8, N-(3,3-Dimethylbutyl)-N′-[(3R)-1-methylpyrrolidin-3-yl]pyrimidine-4,6-diamine] | 593
CCNc1cc(N2CC(NC)C2)nc(N)n1 [Example 70, N^4-Ethyl-6-[3-(methylamino)azetidin-1-yl]pyrimidine-2,4-diamine] | 3.79
CCCNc1cc(N2CC(NC)C2)nc(N)n1 [Example 73, 6-[3-(Methylamino)azetidin-1-yl]-N^4-propylpyrimidine-2,4-diamine] | 0.88
CNC1CN(c2cc(NC3CCC3)nc(N)n2)C1 [Example 75, N^4-Cyclobutyl-6-[3-(methylamino)azetidin-1-yl]pyrimidine-2,4-diamine] | 1.07
CC(C)CCNc1cc(N2CCN(C)CC2)ncn1 [Example 100, N-(3-Methylbutyl)-6-(4-methylpiperazin-1-yl)pyrimidin-4-amine] | 40.2
CC(C)(C)CCNc1cc(N[C@H]2CCNC2)nc(N)n1 [Example 101, N^4-(3,3-Dimethylbutyl)-N^6-[(3S)-pyrrolidin-3-yl]pyrimidine-2,4,6-triamine] | 463
CN1CCN(c2cc(NCCC(C)(C)C)nc(N)n2)CC1 [Example 102, N^4-(3,3-Dimethylbutyl)-6-(4-methylpiperazin-1-yl)pyrimidine-2,4-diamine] | 57.3
CCNc1cc(N2CCN(C)CC2)ncn1 [Example 103, N-Ethyl-6-(4-methylpiperazin-1-yl)pyrimidin-4-amine] | 87.9
CC(C)Nc1cc(N2CCN(C)CC2)ncn1 [Example 104, N-Isopropyl-6-(4-methylpiperazin-1-yl)pyrimidin-4-amine] | 118
CC(C)CNc1cc(N2CCN(C)CC2)ncn1 [Example 105, N-Isobutyl-6-(4-methylpiperazin-1-yl)pyrimidin-4-amine] | 68.8

SMILES | Ki [nM]
CN1CCN(c2cc(NCC3CC3)ncn2)CC1 [Example 106, N-(Cyclopropylmethyl)-6-(4-methylpiperazin-1-yl)pyrimidin-4-amine] | 66.1
CC(C)CCNc1cc(N[C@H]2CCNC2)ncn1 [Example 107] | 271
CCC(C)CNc1cc(N2CC(NC)C2)nc(N)n1 (centres unmarked) [Example 128, 6-[3-(Methylamino)azetidin-1-yl]-N^4-(2-methylbutyl)pyrimidine-2,4-diamine] | 0.805
CNC1CN(c2cc(N[C@@H](C)C(C)C)nc(N)n2)C1 [Example 129, N^4-[(1S)-1,2-Dimethylpropyl]-6-[3-(methylamino)azetidin-1-yl]pyrimidine-2,4-diamine] | 3.78
CNC1CN(c2cc(NCc3cc(F)ccc3F)nc(N)n2)C1 [Example 130, N^4-(2,5-Difluorobenzyl)-6-[3-(methylamino)azetidin-1-yl]pyrimidine-2,4-diamine] | 9.69
CNC1CN(c2cc(NCc3cccc(F)c3F)nc(N)n2)C1 [Example 131, N^4-(2,3-Difluorobenzyl)-6-[3-(methylamino)azetidin-1-yl]pyrimidine-2,4-diamine] | 17.8
CCCCNc1cc(N2CC(NC)C2)nc(N)n1 [Example 132, N^4-Butyl-6-[3-(methylamino)azetidin-1-yl]pyrimidine-2,4-diamine] | 0.791
CC(C)CNc1cc(N2CCCNCC2)nc(N)n1 [Example 133, 6-(1,4-Diazepan-1-yl)-N^4-isobutylpyrimidine-2,4-diamine] | 0.653
CN[C@@H]1CCN(c2cc(NC3CC3C)nc(N)n2)C1 (stereo partly drawn) [Example 134, 6-[(3R)-3-(Methylamino)pyrrolidin-1-yl]-N^4-(2-methylcyclopropyl)pyrimidine-2,4-diamine] | 4.15
CC(C)CNc1cc(N2CCCN(C)CC2)nc(N)n1 [Example 135, N^4-Isobutyl-6-(4-methyl-1,4-diazepan-1-yl)pyrimidine-2,4-diamine] | 1.13
Nc1nc(NCC2CC2)cc(N2CC(N3CCCC3)C2)n1 [Example 136, N^4-(Cyclopropylmethyl)-6-(3-pyrrolidin-1-ylazetidin-1-yl)pyrimidine-2,4-diamine] | 7.21
CN[C@@H]1CCN(c2cc(NC34CC(C3)C4)nc(N)n2)C1 [Example 138, N^4-Bicyclo[1.1.1]pent-1-yl-6-[(3R)-3-(methylamino)pyrrolidin-1-yl]pyrimidine-2,4-diamine] | 5.8
CCNc1cc(N2CCC(N)CC2)nc(N)n1 [Example 139, 6-(4-Aminopiperidin-1-yl)-N^4-ethylpyrimidine-2,4-diamine] | 12.1
CCCNc1cc(N2CC(C)(NC)C2)nc(N)n1 [Example 140, 6-[3-Methyl-3-(methylamino)azetidin-1-yl]-N^4-propylpyrimidine-2,4-diamine] | 12.1
CC(C)(C)CNc1cc(N2CC(N3CCCC3)C2)nc(N)n1 [Example 142, N^4-(2,2-Dimethylpropyl)-6-(3-pyrrolidin-1-ylazetidin-1-yl)pyrimidine-2,4-diamine] | 3.04
CNCCNc1cc(NCC(C)(C)C)nc(N)n1 [Example 143, N^4-(2,2-Dimethylpropyl)-N^6-[2-(methylamino)ethyl]pyrimidine-2,4,6-triamine] | 72.4
CN(C)CCNc1cc(NCC(C)(C)C)nc(N)n1 [Example 144, N^4-[2-(Dimethylamino)ethyl]-N^6-(2,2-dimethylpropyl)pyrimidine-2,4,6-triamine] | 16.8
CC(C)NC1CN(c2cc(NCC(C)(C)C)nc(N)n2)C1 [Example 145, N^4-(2,2-Dimethylpropyl)-6-[3-(isopropylamino)azetidin-1-yl]pyrimidine-2,4-diamine] | 14.3
CC[C@@H](C)Nc1cc(N2CC[C@@H](NC)C2)ncn1 [Example 146, 6-[(3R)-3-(Methylamino)pyrrolidin-1-yl]-N-[(1R)-1-methylpropyl]pyrimidin-4-amine] | 13.7
CCCCNc1cc(N2CC[C@@H](NC)C2)ncn1 [Example 147, N-Butyl-6-[(3R)-3-(methylamino)pyrrolidin-1-yl]pyrimidin-4-amine] | 17.3
CN[C@@H]1CCN(c2cc(NC(C)(C)C)nc(N)n2)C1 [Example 148, N^4-(tert-Butyl)-6-[(3R)-3-(methylamino)pyrrolidin-1-yl]pyrimidine-2,4-diamine] | 4.89
